Measurements reported in ChEMBL document CHEMBL1641549, “Inhibitory effects of hybrid liposomes on the growth of synoviocyte causing rheumatoid arthritis” (2011).
Calls of active or inactive are those of the source. No cut-off for these calls is given here.

Assays:
[1] = Induction of apoptosis in HFLS isolated from rheumatoid arthritis patients after 24 hrs using propidium iodide staining by flow cytometry relative to DNA content; assay type: functional, Homo sapiens
[2] = test system: Mus musculus; assay: Antiarthritic activity in SKG mouse expressing human rheumatoid arthritis invasion of inflammatory cells assessed as reduction of laminarin-induced joint swelling at 135 mg/kg, iv administered 14 days after laminarin challenge every 2 days for 36 weeks; assay type: functional, organism-based; parameters: dose 135 mg/kg
[3] = species: Homo sapiens; assay: Growth inhibition of HFLS isolated from rheumatoid arthritis patients after 48 hrs by WST-1 assay; assay type: functional
[4] = species: Homo sapiens; assay: Induction of apoptosis in HFLS isolated from rheumatoid arthritis patients by TUNEL assay; assay type: functional

SMILES: CCCCCCCCCCCCOCCOCCOCCOCCOCCOCCOCCOCCOCCOCCOCCOCCOCCOCCOCCOCCOCCOCCOCCOCCOCCOCCOCCO
- Activity [1]: 24.8%
- Activity [2]: Active
- growth inhibition (GI) [3]: Active
- Activity [4]: Active

SMILES: CCCCCCCCCCCCOCCOCCOCCOCCOCCOCCOCCOCCOCCOCCOCCOCCOCCOCCOCCOCCOCCOCCOCCOCCOCCOCCOCCOCCOCCO
- Activity [1]: 21.2%
- growth inhibition (GI) [3]: Active
- Activity [4]: Active

SMILES: CCCCCCCCCCCCOCCOCCOCCOCCOCCOCCOCCOCCOCCOCCOCCOCCOCCOCCOCCOCCOCCOCCOCCOCCOCCO
- Activity [1]: 20.9%
- growth inhibition (GI) [3]: Active
- Activity [4]: Active
